Literature values as cited in patent publication US9173848B2, “Solid pharmaceutical fixed dose compositions comprising irbesartan and amlodipine, their preparation and their therapeutic application” (SANOFI, priority 2009, dated 2015).

Assays:
[1] = in vivo

Row | Compound | solubility in water | absolute bioavailability [1] | media of maximum solubility (parabolic pH solubility profile)
1 | CCOC(=O)C1=C(COCCN)NC(C)=C(C(=O)OC)C1c1ccccc1Cl (stereo not shown) [Amlodipine besylate] | slightly soluble | 64-90% | –
2 | CCCCC1=NC2(CCCC2)C(=O)N1Cc1ccc(-c2ccccc2-c2nnn[nH]2)cc1 [Irbesartan, 2-n-butyl-4-spirocyclopentane-1-[(2′-(tetrazol-5-yl)biphenyl-4-yl)methyl]-2-imidazolin-5-one] | insoluble | – | 0.1 N HCl and pH 7.5 phosphate buffer
